From patent US5658908A (priority 1992, dated 1997)
“Also recorded” adds a separate entry of the source.

What was measured:
delta receptor [1] = molecular target: delta receptor (Mus musculus, UniProt P32300); assay: Delta opioid receptor agonist activity; conditions: in words
[2] = Side effects on peripheral administration to rats and mice
mu receptor [3] = assay: Mu opioid receptor agonist activity; conditions: in words
[4] = Analgesia (test not described); format: in vivo; conditions: in words
mouse vas deferens [5] = molecular target: T1, mouse vas deferens (Mus musculus, UniProt P32300); assay: cell-based
T1 construct: Vasa deferentia were removed from mice; from tissue; host or cells: mouse vas deferens

Mu Receptor [6] = molecular target: T2, Mu Receptor (Rattus norvegicus, UniProt P33535); assay: Mu receptor binding, rat brain membranes; parameters: species or system rat (Sprague-Dawley); conditions: 125I-[D-Ala2,N-MePhe4,Met(O)ol5]enkephalin 0.1 nM, 24° C., 60 min, mean of (n) experiments, read-out: Mu Receptor IC50
T2 construct: Rat (Sprague-Dawley) brain membranes were prepared; from tissue; host or cells: rat (Sprague-Dawley) brain membranes

guinea pig ileum = assay: Inhibition of electrically stimulated contraction of guinea pig ileum; format: cell-based; conditions: Cavia porcellus, mean of (n) experiments, read-out: Guinea Pig lleum ED50
[7] = test system: mu and delta opioid receptors; assay: Rodent tests of analgesia, muscle rigidity, respiratory depression and proconvulsant activity
mouse vas deferens [8] = molecular target: T1, mouse vas deferens; assay: cell-based; format: cell-based
Delta Receptor [9] = molecular target: T3, Delta Receptor (Rattus norvegicus, UniProt P33533); assay: Delta receptor binding, rat brain membranes; parameters: species or system rat (Sprague-Dawley); conditions: 125I-[D-Ala2,D-Leu5]enkephalin 0.24 nM with mu-agonist morphiceptin analog, 24° C., 60 min, mean of (n) experiments, read-out: Delta Receptor IC50
T3 construct: Rat (Sprague-Dawley) brain membranes were prepared; from tissue; host or cells: rat (Sprague-Dawley) brain membranes
T3 sequence (P33533 whole entry): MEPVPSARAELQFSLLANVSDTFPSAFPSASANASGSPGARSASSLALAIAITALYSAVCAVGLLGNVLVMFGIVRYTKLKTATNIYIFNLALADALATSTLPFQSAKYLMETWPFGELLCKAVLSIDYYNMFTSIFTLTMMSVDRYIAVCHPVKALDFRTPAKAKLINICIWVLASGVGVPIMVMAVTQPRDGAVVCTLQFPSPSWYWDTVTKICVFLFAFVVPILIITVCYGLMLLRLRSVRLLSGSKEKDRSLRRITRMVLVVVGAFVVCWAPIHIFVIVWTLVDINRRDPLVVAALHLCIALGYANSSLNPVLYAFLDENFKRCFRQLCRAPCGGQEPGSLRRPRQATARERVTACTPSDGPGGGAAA

delta receptor, sequence (P32300 whole entry): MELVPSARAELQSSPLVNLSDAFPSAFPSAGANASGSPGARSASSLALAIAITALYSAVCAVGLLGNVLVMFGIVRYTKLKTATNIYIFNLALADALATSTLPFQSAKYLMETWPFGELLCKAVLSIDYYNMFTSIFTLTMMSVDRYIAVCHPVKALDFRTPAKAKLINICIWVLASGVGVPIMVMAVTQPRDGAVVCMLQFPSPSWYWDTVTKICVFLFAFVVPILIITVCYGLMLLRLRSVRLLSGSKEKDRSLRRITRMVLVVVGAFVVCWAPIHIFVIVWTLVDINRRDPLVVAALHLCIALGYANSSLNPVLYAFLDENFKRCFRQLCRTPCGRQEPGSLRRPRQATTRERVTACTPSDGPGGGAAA
T1 sequence (P32300 whole entry): as above
T2 sequence (P33535 whole entry): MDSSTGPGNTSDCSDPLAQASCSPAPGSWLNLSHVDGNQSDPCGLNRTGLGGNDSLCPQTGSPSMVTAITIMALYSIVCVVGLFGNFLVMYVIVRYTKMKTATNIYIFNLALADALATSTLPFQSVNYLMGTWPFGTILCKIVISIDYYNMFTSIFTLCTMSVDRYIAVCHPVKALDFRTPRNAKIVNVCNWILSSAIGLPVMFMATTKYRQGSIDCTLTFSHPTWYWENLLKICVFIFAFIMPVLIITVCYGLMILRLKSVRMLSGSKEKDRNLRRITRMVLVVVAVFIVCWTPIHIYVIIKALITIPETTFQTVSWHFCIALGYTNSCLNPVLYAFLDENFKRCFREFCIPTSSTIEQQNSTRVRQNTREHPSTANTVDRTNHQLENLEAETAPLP

C=CCN1C[C@H](C)N([C@H](c2cccc(O)c2)c2cc(Br)c(C(=O)N(CC)CC)s2)C[C@H]1C (relative stereo) [Compound B, 5-((αR*)-α-((2S*,5R*)-4-allyl-2,5-dimethyl-1-piperazinyl)-3-hydroxybenzyl)-3-bromo-N,N-diethyl-2-thiophenecarboxamide]
opioid receptor ligand selectivity (opioid receptor): highly selective opioid receptor ligand species
delta receptor agonist activity (delta receptor [1]): predominantly delta receptor agonist; also recorded: delta-opioid agonist
side effects when administered peripherally [2]: does not produce evident side effects

C=CCN1C[C@H](C)N([C@@H](c2ccccc2)c2cccc(O)c2)C[C@H]1C (relative stereo) [Compound I]
mu receptor agonist activity (mu receptor [3]): significant agonist activity
delta receptor agonist activity (delta receptor [1]): delta-receptor opiate properties
analgesic activity [4]: strong analgesics

C=CCN1C[C@H](C)N([C@@H](c2ccsc2)c2cccc(O)c2)C[C@H]1C (relative stereo) [Compound K]
mu receptor agonist activity (mu receptor [3]): significant agonist activity
delta receptor agonist activity (delta receptor [1]): delta-receptor opiate properties
analgesic activity [4]: strong analgesics

CCN(CC)C(=O)c1ccc([C@H](c2cccc(O)c2)N2C[C@@H](C)N(C)C[C@H]2C)cc1 [Example 13, (+)-N,N-diethyl-4-(3-hydroxy-(αR)-α-((2R,5R) -2,4,5-trimethyl-1-piperazinyl)benzyl)benzamide]
Kb (mouse vas deferens [5]): 100 nM
IC50 (Mu Receptor [6]): 2400 nM
IC50 (guinea pig ileum): > 10000 nM

C=CCN1C[C@H](C)N([C@@H](c2cccc(O)c2)c2cccc(C(=O)N(CC)CC)c2)C[C@H]1C [Example 85, (+)-3-((αR)-α-((2S,5R)-4-Allyl-2,5-dimethyl-1-piperazinyl)-3-hydroxybenzyl)-N,N-diethylbenzamide]
analgesic potency compared to morphine [7]: analgesic potency comparable to mu-analgesic morphine
muscle rigidity and respiratory depression compared to morphine [7]: much reduced extent of muscle rigidity and respiratory depression
proconvulsant activity [7]: free of proconvulsant activity
mu receptor agonist activity (mu receptor [3]; listed as Compound C): mixed mu/delta opioid agonist; also recorded: agonism at both mu and delta opioid receptors
delta receptor agonist activity (delta receptor [1]; listed as Compound C): mixed mu/delta opioid agonist; also recorded: agonism at both mu and delta opioid receptors
IC50 (mouse vas deferens [8]): 7.3 nM
IC50 (Delta Receptor [9]): 1.9 nM
IC50 (guinea pig ileum): 18 nM
